Reference: US9463189B2 (BPV Holdings, LLC, priority 2007, dated 2016)
Counter-ions that a name gives are not always drawn.

How the values were obtained:
NASH mice = experiment: Serum transaminases AST and ALT in HFD-induced NASH mice (clinical chemistry panel); type: in vivo, C57B1/6J mice
Text: (§1) Early Steatosis Model: C57B1/6J mice (22-39 days old) mice were used for the study. Mice were fed normal chow food (Lab Diet, 5P14Prolab Animal Diet, PMI Nutritional International, Brentwood, Mo., Cat# RMH 2500) or 58% high fat diet (HFD, 58 kcal % fat and corn starch with purple dye, Research Diets, New Brunswick, N.J., Cat# D12330 equivalent to Western diet) for 120-150 days. […] This group is referred to as the HFD-low body group in FIG. 1A (insulin & liver fat accumulation˜normal). On the other hand, one fifth of the mice gained 60-70% higher body weight (compared to normal chow fed mice) while on the same HFD diet (NASH group, very high insulin and liver fat) further shown in FIG. 1A. The majority of the mice (three fifths) gained body weight as expected on the HFD (30-40% higher than the normal chow fed mice) and is referred to as the DIO group (normal to moderately high insulin and liver fat accumulation) as shown in FIG. 1A. Control animals (n=5) representative of the HFD-low body weight and the NASH groups were sacrificed prior to starting the rest of the animals on treatment with the Compound 2 (5 or 10 mg/Kg/day). Liver, white adipose and muscle from the sacrificed mice were collected for histology performed on the liver tissue.
Following 120-150 days on the HFD, mice in the NASH group were treated with Compound 2 (5 or 10 mg/Kg/day) or vehicle (10% Encapsin) for 42 days. Fasting and post prandial (PP) blood draws were taken at the beginning of the study (compound treatment) to identify and confirm the NASH group and during the study to evaluate various pharmacological responses. Since the NASH mice are severely hyperinsulinemic compared to NC mice, glucose tolerance testing (GTT, measures peripheral insulin resistance) was performed to evaluate the effect of Compound 2 on improvement of peripheral insulin sensitivity. Treatment was administered for 42 days (separate experiments). Body weight and food intake was measured throughout the study.
Tail blood was collected into EDTA capillary tubes (Becton, Dickinson and Company, Franklin Lakes, N.J., Cat #365973). Upon sacrifice, blood was collected by cardiac puncture using a 1 mL Syringe Tuberculin Slip Tip (Becton, Dickinson & Company, Cat #309602) and B-D25G 5/8 needle (Becton Dickinson, Franklin Lakes, N.J., Cat #305122) and saved into Microtainer brand tube with EDTA (Becton, Dickinson and Company, Cat #365973). The blood was spun for 8 minutes at 8500 rpm at 4° C. (Eppendorf, Centrifuge 5415R, New York, N.Y.). Plasma was collected and stored at −20° C. for further analyses
80 μL EDTA plasma was diluted with 80 μL Dulbecco's phosphate buffered saline (Gibco, Grand Island, N.Y., Cat #14040-133) and analyzed in Olympus AU600 (Olympus, London, UK) for the following endpoints. The lower and upper limit ranges were according to the assay values provided by the JAS Diagnostics, INC (Miami, Fla.). • Glucose (LL 94-116, UL 297-353 mg/dL, Cat # JAS GLU2-125) • Triglycerides (LL 46-102, UL 128-168 mg/dL, Cat # TRI2-125) • ALT/GPT (LL 10-34, UL 64-114 U/L, Cat # JAS ALT2-125) • AST/GOT (LL 18-46, UL 121-187 U/L, Cat # JAS AST2-125) • Multi-Chemistry calibrator (Albumin: 3.9 g/dL, Cholesterol: 212 mg/dL, • Creatinine: 4.4 mg/dL, Glucose: 220 mg/dL, Triglycerides: 116 mg/dL, Cat # JAS CAL1-5) • Multi-Chemistry control level 1 (Range: See above for each constituent, Cat # JAS CON1-5) • Multi-Chemistry control level 2 (Range: See above for each constituent, Cat # JAS CON2-5)

[1] = Body weight loss in NASH mice; type: in vivo, C57B1/6J mice; conditions: oral administration, p<0.05 vs. vehicle
Text: as §1, with “Liver, white adipose and muscle from the sacrificed mice were collected for histology performed on the liver tissue.” left out
Following 120-150 days on the HFD, mice in the NASH group were treated with Compound 2 (5 or 10 mg/Kg/day) or vehicle (10% Encapsin) for 42 days. […] Body weight and food intake was measured throughout the study.

C[C@@H]1CN(Cc2ccc(OC(F)(F)F)cc2)C[C@H](C)N1S(=O)(=O)c1cccc2c1C[C@@H](C(=O)O)C2 [Compound 2, (S)-4-[cis-2,6-Dimethyl-4-(4-trifluoromethoxy-benzyl)-piperazine-1-sulfonyl]-indan-2-carboxylic acid tosylate]
reduction in AST compared to the vehicle group (NASH mice; 42 days of 5 mg/kg/day, p<0.02): 43%
reduction in ALT compared to the vehicle group (NASH mice; 42 days of 5 mg/kg/day, p<0.05): 43%
ALT serum level, treated group (NASH mice; 42 days of 5 mg/kg/day, vehicle 108±15, in U/L): 62±13
AST serum level, treated group (NASH mice; 42 days of 5 mg/kg/day, vehicle 201±23, in U/L): 115±19
levels of serum transaminases AST and ALT (NASH mice; oral administration, summary): reduced levels
weight loss [1]: increased weight loss
